These results are taken from patent US20140371244A1, “METHOD FOR TREATING PROSTATE CANCER BY USE OF PHARMACEUTICAL COMPOSITION CONTAINING A3 ADENOSINE RECEPTOR AGONIST” (priority 2009, published 2014).

For data set [1], the system named is iNOS (inducible nitric oxide synthase). The data set can be described thus: NO production inhibitory activity (iNOS assay) in LPS-stimulated RAW 264.7 cells. The data set is classed as cell-based, mouse. Particulars: LPS 1 μg/ml; for IC50: RAW 264.7 cells, 20 hours, read-out: IC50 of NO production inhibition. On the procedure: A test was carried out to examine the inhibitory activity of the inhibitory activity of the inventive composition on the enzyme iNOS (inducible nitric oxide synthase) whose expression increases when inflammatory reactions and traumas exist.
Specifically, RAW 264.7 cells (5×10^5 cells/ml) were added to a 24-well plate with 10% FBS-containing DMEM medium in an amount of 1 ml per well and cultured for 24 hours. […] After 30 minutes, 1 μg/ml of LPS was added to the cells which were then cultured in a 5% CO2 incubator at 37° C. for 20 hours (test groups). As a blank, RAW cells cultured without addition of LPS and the inventive composition were used, and as a control group, RAW cells cultured with addition of only LPS were used.
100 μl of the supernatant of each well was taken and allowed to react with 90 μl of each of sulfanilamide solution and N-(1-naphtyl)-ethylenediamine solution. Then, each reaction product was measured for absorbance at 540 nm to determine the amount of nitrate or nitrite produced in the culture medium, and the results of the measurement are shown in FIG. 1.
A standard curve was potted using NaNO2 solution, and the NO production inhibitory activity of each of the samples was evaluated by calculating NaNO2 concentration in each test group relative to the control group using the following equation 1 based on the measured absorbance and comparing the calculated NaNO2 concentration with that in the group treated with LPS alone. Inhibition rate (%) was calculated as nitrate concentration using the following equation, and then the IC50 value of the composition was calculated.

For data set [2], the system named is LPS-induced sepsis. In words: Animal model with LPS-induced sepsis. The data set is classed as in vivo, ICR mice. Particulars: LPS (S. marcenes) 2 mg/kg then 10 mg/kg. How it is done: The effect of the inventive composition (thio-Cl-IB-MECA) in an animal model with LPS-induced sepsis was tested. S. marcenes-derived LPS used in the test is known to be strongly pathogenic compared to E. coli-derived LPS. First, LPS was administered at low dose to attenuate an immune response in animals, and after a given time, it was administered at high dose to rapidly induce sepsis and septic shock. Specifically, ICR mice (20-25 g, male) were divided into the following 5 groups, each consisting of 6 mice: a normal group not treated with any substance; a control group administered with only saline; groups administered with the inventive composition (200 and 500 μg/kg of thio-Cl-IB-MECA); and a group administered with the conventional A3 adenosine receptor agonist (500 μg/kg IB-MECA). 30 minutes administration of these drugs, a solution of 2 mg/kg LPS (S. marcenes) in saline was administered intraabdominally. After 20 hours, the drug was administered again, and 30 minutes, LPS (S. marcenes) was administered again at a dose of 10 mg/kg. The mice were observed hourly up to 6 hours after the second stimulation, and the survival rate was observed up to 7 days after the second stimulation. The effect of the inventive composition (thio-Cl-IB-MECA) was compared with the effect of the prior A3 adenosine receptor agonist (IB-MECA), and the effects of the inventive composition (thio-Cl-IB-MECA) at different doses (200 and 500 μg/kg) were compared with each other.
The change in bodyweight was measured before the start of the test, before the second administration of the drug, and 7 days after the second administration.

The subject of data set [3] is LNCaP (androgen receptor dependent). The data set can be described thus: SRB assay, growth of LNCaP cells. The data set is classed as cell-based, human. Particulars: for IC50: SRB, 3 days. On the procedure:
(§1) In order to examine the inhibitory effects on the growth of the human prostate cancer cells LNCaP (androgen receptor dependent) and PC-3 (androgen receptor independent), a sulforhodamine B (SRB) assay was performed.
(§2) 10 μL of a solution of thio-Cl-IB-MECA in 10% dimethylsulfoxide (DMSO) was loaded in each well of a 96-well plate in triplicate at concentrations of 50, 25, 12.5 and 6.25 μM, thus making a test plate. Cells were diluted to a density of 6×10^4 cells/ml with 10% FBS-containing RPMI 1640 medium supplemented with antibiotics-antimycotics, and 190 μL of the cell suspension was added to each well so as to reach a total volume of 200 μL and was cultured in a 5% CO2 incubator at 37° C. for 3 days. At the same time, 190 μL of the same cell suspension was loaded into each of 16 wells or more of a fresh 96-well plate containing no sample (thio-Cl-IB-MECA) and was cultured in a 5% CO2 incubator at 37° C. for 30 minutes, thereby determining reference date. After the culture, 50 μL of 50% trichloroacetic acid (TCA) was added to each well, and the cells were fixed by culture at 4° C. for 1 hour. Then, the well plate was washed five times with tap water and dried. 100 μL of 1% acetic acid solution containing […] sulforhodamine B (SRB) was added to each well to stain the cells, and the well plate was allowed to stand at room temperature for 1 hour. After the well plate has been washed five times with 1% acetic acid and sufficiently dried, 200 μL of 100 mM Tris-base was added to each well, and the bound staining liquid was dissolved and sufficiently shaken in a shaker. Then, the absorbance at 515 nm was measured using an ELISA microplate reader. Based on the measured absorbance, the cell viability of the test group relative to the control group was calculated using the following equation 2, and based on the viability at each concentration, the IC50 value of the sample was calculated using TableCurve program: […]
In general terms: The SRB assay estimates cell density from bound dye.

In data set [4] the test system is PC-3 (androgen receptor independent). The data set can be described thus: SRB assay, growth of PC-3 cells. The format is cell-based, human. The note with it: for IC50: SRB, 3 days. On the procedure: as §1, §2
For data set [5], the system named is prostate cancer cell line PC-3. In words: Anticancer activity in PC-3 tumor-transplanted nude mice. The format is in vivo. Particulars: for tumor production inhibitory activity relative to the control group: 2 mg/kg orally every day for 35 days. How it is done:
Based on the anticancer activity of thio-Cl-IB-MECA against prostate cancer cells, proven by the in vitro test, the anticancer activity of thio-Cl-IB-MECA was measured by an animal test. The prostate cancer cell line PC-3 was transplanted subcutaneously into nude mice, and when the tumor size reached 150-200 mm^3 after 8 days, the drug thio-Cl-IB-MECA (0.02, 0.2 and 2 mg/kg), thio-IB-MECA (2 mg/kg) or IB-MECA (2 mg/kg) was administered orally every day for 35 days. The tumor size was measured at intervals of 3-5 days. The tumor volume was measured using the following equation 3.
Tumor volume=abc×π/6 [Equation 3]
wherein a represents the longer diameter of the tumor, b represents the shorter diameter of the tumor, and c represents the height of the tumor.

The structures appear in SMILES notation.

`CNC(=O)[C@H]1O[C@@H](n2cnc3c(NCc4cccc(I)c4)ncnc32)[C@H](O)[C@@H]1O` [IB-MECA]: the IC50 in data set [1] came to 65.7 µM; in data set [3], 54.2 µM; in data set [4], 97.1 µM. Further, the “survival rate after 1 day” value in data set [2] (500 μg/kg) is given as 66.7%. Besides, in data set [3] (50 μM (highest concentration)), the “cell viability in LNCaP” value is on record as 54%. For the same compound, the “cell viability in PC-3” value in data set [4] (50 μM (highest concentration)) was found to be 63%. Also, in data set [5], the “tumor production inhibitory activity relative to the control group” value is on record as “about 45.9%”.
For the compound `CNC(=O)[C@H]1S[C@@H](n2cnc3c(NCc4cccc(I)c4)nc(Cl)nc32)[C@H](O)[C@@H]1O` [thio-Cl-IB-MECA, 2-chloro-N^6-(3-iodobenzyl)-4′-thioadenosine-5′-N-methyluronamide], in data set [1] (5, 10 and 20 μM), the “production of NO” value is on record as “inhibited in a concentration-dependent manner”. Further, the values for the IC50 in data set [1], in data set [3] and in data set [4] were 16.2 µM, 18.6 µM and 20.4 µM, respectively. In addition, the “survival rate after 1 day” value in data set [2] (200 μg/kg) was determined as 71.4%; in data set [2] (500 μg/kg) it was 66.7%. For the same compound, in data set [5], the “tumor production inhibitory activity relative to the control group” value was 82.6%. In addition, the “tumor production as a function of dose” value in data set [5] (0.02, 0.2 and 2 mg/kg orally every day for 35 days) is reported as “inhibited tumor production in a concentration-dependent manner”.

By IC50 is commonly meant the concentration that gives 50% inhibition.
